Measured values: US11051515B2, “3-acyl-benzamides and their use as herbicides” (Bayer Aktiengesellschaft, priority 2017, dated 2021)

Key:
[1] = test system: DIGSA; assay: Pre-emergence action against DIGSA; format: in vivo, Digitaria sanguinalis; conditions: dosage 320 g/ha, scored visually after 3 weeks vs untreated controls
Method in brief: (§1)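 Seeds sown in sandy loam in wood-fiber pots and covered with soil. Greenhouse growth; visual damage scored after 3 weeks versus untreated controls (100% = dead, 0% = like control).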

[2] = test system: ECHCG; assay: Pre-emergence action against ECHCG; format: in vivo, Echinochloa crus-galli; conditions: pre-emergence, dosage 320 g/ha, scored visually after 3 weeks vs untreated controls
Method in brief: as §1

[3] = test system: SETVI; assay: Pre-emergence action against SETVI; format: in vivo, Setaria viridis; conditions: pre-emergence, dosage 320 g/ha, scored visually after 3 weeks vs untreated controls
Method in brief: as §1

[4] = test system: ABUTH; assay: Pre-emergence action against ABUTH; format: in vivo, Abutilon theophrasti; conditions: pre-emergence, dosage 320 g/ha, scored visually after 3 weeks vs untreated controls
Method in brief: as §1

[5] = test system: AMARE; assay: Pre-emergence action against AMARE; format: in vivo, Amaranthus retroflexus; conditions: pre-emergence, dosage 320 g/ha, scored visually after 3 weeks vs untreated controls
Method in brief: as §1

[6] = test system: MATIN; assay: Pre-emergence action against MATIN; format: in vivo, Matricaria inodora; conditions: Dosage 320 g/ha, pre-emergence
Method in brief: as §1

[7] = test system: STEME; assay: Pre-emergence action against STEME; format: in vivo, Stellaria media; conditions: Dosage 320 g/ha, pre-emergence
Method in brief: as §1

[8] = test system: VIOTR; assay: Pre-emergence action against VIOTR; format: in vivo, Viola tricolor; conditions: Dosage 320 g/ha, pre-emergence
Method in brief: as §1

[9] = test system: VERPE; assay: Pre-emergence action against VERPE; format: in vivo, Veronica persica; conditions: Dosage 320 g/ha, pre-emergence
Method in brief: as §1

[10] = test system: DIGSA; assay: Post-emergence action against DIGSA; format: in vivo, Digitaria sanguinalis; conditions: dosage 80 g/ha, visual assessment about 3 weeks after treatment vs untreated controls
Protocol: Seeds of monocotyledonous and dicotyledonous weed and crop plants are laid out in sandy loam soil in wood-fiber pots, covered with soil and cultivated in a greenhouse under good growth conditions. 2 to 3 weeks after sowing, the test plants are treated at the one-leaf stage. The compounds of the invention, formulated in the form of wettable powders (WP) or as emulsion concentrates (EC), are then sprayed onto the green parts of the plants in the form of an aqueous suspension or emulsion at a water application rate equating to […], with addition of 0.2% wetting agent. After the test plants have been left to stand in the greenhouse under optimal growth conditions for about 3 weeks, the action of the preparations is assessed visually in comparison to untreated controls (herbicidal action in percent (%): 100% activity=the plants have died, 0% activity=like control plants). […] At the same time, inventive compounds leave Gramineae crops such as barley, wheat, rye, millet/Sorghum, corn or rice virtually undamaged when applied post-emergence, even at high active ingredient dosages. In addition, some substances are also harmless to dicotyledonous crops such as soya, cotton, oilseed rape, sugar beet or potatoes. Some of the compounds according to the invention have high selectivity and are therefore suitable for controlling unwanted vegetation in agricultural crops by the post-emergence method. The data of Tables B18 to B34 below illustrate, in an exemplary manner, the […] herbicidal action of the compounds according to the invention, the herbicidal activity being stated in percent.

[11] = test system: ABUTH; assay: Post-emergence action against ABUTH; format: in vivo, Abutilon theophrasti; conditions: post-emergence, dosage 80 g/ha, visual assessment about 3 weeks after treatment vs untreated controls
Method in brief: (§2)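 Post-emergence foliar spray on greenhouse plants at the one-leaf stage, using wettable-powder or emulsion-concentrate formulations in water (600 to […], plus 0.2% wetting agent). Damage scored by eye roughly 3 weeks later against untreated plants: 0% = like control, 100% = dead.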

[12] = test system: AMARE; assay: Post-emergence action against AMARE; format: in vivo, Amaranthus retroflexus; conditions: post-emergence, dosage 80 g/ha, visual assessment about 3 weeks after treatment vs untreated controls
Method in brief: as §2

[13] = test system: MATIN; assay: Post-emergence action against MATIN; format: in vivo, Matricaria inodora; conditions: post-emergence, dosage 80 g/ha, visual assessment about 3 weeks after treatment vs untreated controls
Method in brief: as §2

[14] = test system: PHBPU; assay: Post-emergence action against PHBPU; format: in vivo, Pharbitis purpurea; conditions: post-emergence, dosage 80 g/ha
Method in brief: as §2

[15] = test system: STEME; assay: Post-emergence action against STEME; format: in vivo, Stellaria media; conditions: post-emergence, dosage 80 g/ha
Method in brief: as §2

[16] = test system: VIOTR; assay: Post-emergence action against VIOTR; format: in vivo, Viola tricolor; conditions: post-emergence, dosage 80 g/ha
Method in brief: as §2

[17] = test system: VERPE; assay: Post-emergence action against VERPE; format: in vivo, Veronica persica; conditions: dosage 80 g/ha
Method in brief: as §2

[18] = test system: ALOMY; assay: Pre-emergence action against ALOMY; format: in vivo, Alopecurus myosuroides; conditions: dosage 320 g/ha; pre-emergence; scored visually after 3 weeks vs untreated controls; 100% = plants have died, 0% = like control plants
Method in brief: as §1

[19] = test system: ECHCG; assay: Post-emergence action against ECHCG; format: in vivo, Echinochloa crus-galli; conditions: post-emergence, dosage 80 g/ha, visual assessment about 3 weeks after treatment vs untreated controls
Method in brief: as §2

[20] = test system: POLCO; assay: Post-emergence action against POLCO; format: in vivo, Polygonum convolvulus; conditions: post-emergence, dosage 80 g/ha
Method in brief: as §2

[21] = test system: PHBPU; assay: Pre-emergence action against PHBPU; format: in vivo, Pharbitis purpurea; conditions: Dosage 320 g/ha, pre-emergence
Method in brief: as §1

[22] = test system: SETVI; assay: Post-emergence action against SETVI; format: in vivo, Setaria viridis; conditions: post-emergence, dosage 80 g/ha, visual assessment about 3 weeks after treatment vs untreated controls
Method in brief: as §2

[23] = test system: AVEFA; assay: Pre-emergence action against AVEFA; format: in vivo, Avena fatua; conditions: dosage 320 g/ha, scored visually after 3 weeks vs untreated controls
Method in brief: as §1

[24] = test system: ALOMY; assay: Post-emergence action against ALOMY; format: in vivo, Alopecurus myosuroides; conditions: Dosage 80 g/ha, post-emergence
Method in brief: as §2

Row | Structure (SMILES) | Pre-emergence action against DIGSA (herbicidal activity) [1] | Pre-emergence action against ECHCG (herbicidal activity) [2] | SETVI (Table B8, pre-emergence herbicidal activity) [3] | Pre-emergence action against ABUTH (herbicidal activity) [4] | Pre-emergence action against AMARE (herbicidal activity) [5] | Pre-emergence action against MATIN [6] | Pre-emergence action against STEME [7] | Pre-emergence action against VIOTR [8] | Pre-emergence action against VERPE [9] | Post-emergence action against DIGSA (herbicidal action in percent) [10] | Post-emergence action against ABUTH (herbicidal action in percent) [11] | Post-emergence action against AMARE (herbicidal action in percent) [12] | Post-emergence action against MATIN (herbicidal action in percent) [13] | Post-emergence action against PHBPU [14] | Post-emergence action against STEME [15] | Post-emergence action against VIOTR [16] | Post-emergence action against VERPE [17] | Pre-emergence action against ALOMY (herbicidal activity in percent) [18] | Post-emergence action against ECHCG (herbicidal action in percent) [19] | Post-emergence action against POLCO [20] | other results
1 | Cn1nnnc1NC(=O)c1ccc(C(F)(F)F)c(C(=O)C2CCCC2)c1Cl [1-154] | 100% | 100% | 80% | 100% | 100% | 100% | 100% | 100% | 90% | 80% | 90% | 90% | 80% | 80 | 90 | 80 | 80 | – | – | – | –
2 | CCn1nnnc1NC(=O)c1ccc(C(F)(F)F)c(C(=O)C2CCC2)c1Cl [2-153] | 100% | – | 100% | 100% | 100% | 100% | 90% | 100% | 100% | 100% | 100% | 90% | 100% | 80 | 100 | 90 | – | 90% | 90% | 80 | –
3 | CCn1nnnc1NC(=O)c1ccc(C(F)(F)F)c(C(=O)C(F)F)c1Cl [2-163] | 90% | 90% | 100% | 100% | 100% | 100% | 100% | 100% | – | 100% | 90% | 100% | 90% | 90 | 100 | 100 | – | – | 90% | – | Pre-emergence action against PHBPU [21]: 100%; Post-emergence action against SETVI (herbicidal action in percent) [22]: 80%
4 | CCn1nnnc1NC(=O)c1ccc(C(F)(F)F)c(C(=O)C2CCC2)c1SC [2-284] | 100% | 100% | 100% | 100% | 100% | 100% | 100% | 100% | 100% | 90% | 100% | 100% | 90% | 90 | 100 | 80 | 80 | 90% | 90% | 80 | Pre-emergence action against AVEFA (herbicidal activity) [23]: 90%; Pre-emergence action against PHBPU [21]: 80%; Post-emergence action against SETVI (herbicidal action in percent) [22]: 100%
5 | CCCC(=O)c1c(C(F)(F)F)ccc(C(=O)Nc2nnnn2CCC)c1C [3-16] | 90% | 90% | 100% | 100% | 100% | 100% | 100% | 90% | 100% | 90% | 100% | 100% | 90% | 90 | 90 | 80 | 80 | 80% | 90% | 90 | Pre-emergence action against AVEFA (herbicidal activity) [23]: 80%; Pre-emergence action against PHBPU [21]: 80%; Post-emergence action against ALOMY [24]: 80%; Post-emergence action against SETVI (herbicidal action in percent) [22]: 90%
